Active and inactive are the calls of the source. The calls are words filed in the database; no cut-off is given here.
Assays:
[1] = tested on: Bacillus subtilis; assay: Antimicrobial activity against Bacillus subtilis ATCC 6633 measured after 24 hrs at 37 degC; type: functional; conditions: ATCC 6633, 24 h
[2] = tested on: Bacillus subtilis; assay: Antimicrobial activity against Bacillus subtilis ATCC 6633 assessed as photodynamic inactivation measured as lethality at 10 uM; type: functional

SMILES | MIC [1] | Activity [2]
O=C(NCC(O)C[n+]1cccc(CC(O)(P(=O)(O)O)P(=O)(O)O)c1)c1ccccc1 (stereo not drawn) | > 128 µg/mL | 
O=C(NCC(O)C[n+]1cccc(CC(O)(P(=O)(O)O)P(=O)(O)O)c1)c1cc2c(ccc3ccccc32)oc1=O (stereo not drawn) | > 128 µg/mL | 47%
O=C(O)c1cc2ccccc2oc1=O |  | inactive
O=C(O)c1cc2c(ccc3ccccc32)oc1=O |  | inactive
O=C(NCC(O)C[n+]1cccc(CC(O)(P(=O)(O)O)P(=O)(O)O)c1)c1ccccc1O (stereo not drawn) | > 128 µg/mL | 
O=C(NCC(O)C[n+]1cccc(CC(O)(P(=O)(O)O)P(=O)(O)O)c1)c1cc2ccccc2oc1=O (stereo not drawn) | > 128 µg/mL | 91%

— ChEMBL document CHEMBL2331107, “Novel fluorescent risedronates: synthesis, photodynamic inactivation and imaging of Bacillus subtilis” (2013)
